From PubChem BioAssay (NCI)
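Five concentrations, 48 hours, 96-well plates. GI50: concentration for 50% inhibition of growth. At the TGI there is no net growth.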

Key:
Experiment in all cases: NCI anticancer screen, dose series, 48 h
HL-60(TB) leukemia = tested on: HL-60(TB) leukemia
MOLT-4 leukemia = tested on: MOLT-4 leukemia
NCI-H460 lung = tested on: NCI-H460 lung
NCI-H522 lung = tested on: NCI-H522 lung
OVCAR-4 ovarian = tested on: OVCAR-4 ovarian
SF-295 CNS = tested on: SF-295 CNS
HCT-15 colon = tested on: HCT-15 colon
SR leukemia = tested on: SR leukemia

Structure (SMILES) | GI50 (HL-60(TB) leukemia) | TGI (HL-60(TB) leukemia) | GI50 (MOLT-4 leukemia) | TGI (MOLT-4 leukemia) | GI50 (NCI-H460 lung) | TGI (NCI-H460 lung) | GI50 (NCI-H522 lung) | TGI (NCI-H522 lung) | GI50 (OVCAR-4 ovarian) | TGI (OVCAR-4 ovarian) | GI50 (SF-295 CNS) | TGI (SF-295 CNS) | TGI (HCT-15 colon) | TGI (SR leukemia) | GI50 (HCT-15 colon) | GI50 (SR leukemia)
CCN(CC)CCN1C(=O)c2c(c3c4ccccc4[nH]c3c3ccc4ccccc4c23)C1=O | 2.04 µM | 4.35 µM | 0.666 µM | 2.9 µM | 1.08 µM | 2.44 µM | 1.46 µM | 3.54 µM | 1.58 µM | 2.96 µM | 0.722 µM | 2.03 µM |  |  |  | 
NC1=Nc2cc(Cl)ccc2Sc2nc3ccccc3n21 |  | 7.49 µM |  | > 100 µM |  | > 100 µM |  | > 100 µM |  | > 100 µM |  | > 100 µM | > 100 µM |  |  | 
O=C1C(Cl)=C(N(C(=O)c2ccccc2)C(=O)c2ccccc2)C(=O)c2ccccc21 |  | 3.15 µM |  | > 100 µM |  | 28.5 µM |  | 43.7 µM |  |  |  | > 100 µM | 9 µM | 81.2 µM |  | 
CCOC(=O)c1nc2ccc(C(F)(F)F)cc2nc1Nc1ccc(Cl)c(Cl)c1 |  | > 100 µM |  | > 100 µM |  | > 100 µM |  | > 100 µM |  |  |  | > 100 µM | > 100 µM | > 100 µM |  | 
COc1cc(OC)c2c3c(OC)cc(OC)c4c(=O)c(O)c(C[C@@H](C)O)c(c5c(C[C@@H](C)O)c(O)c(=O)c1c25)c43 |  | 30.7 µM |  | 39.4 µM |  | > 100 µM |  |  |  | > 100 µM |  | > 100 µM | 44.4 µM |  |  | 
C/C=C1\CN(C(=O)OC(C)(C)C)C1C(=O)OC(C)(C)C (stereo not given) |  | > 100 µM |  | > 100 µM |  | > 100 µM |  |  |  | > 100 µM |  | > 100 µM | > 100 µM | > 100 µM |  | 
COC(=O)c1c(C#N)c(N)nc2c1CCC2 |  | > 100 µM |  | > 100 µM |  | > 100 µM |  | > 100 µM |  | > 100 µM |  | > 100 µM | > 100 µM |  |  | 
CC1(C)CCC(C)(C)C1C(=O)NC(O)C(=O)O (stereo not given) |  | > 100 µM |  | > 100 µM |  | > 100 µM |  |  |  |  |  |  | > 100 µM | > 100 µM |  | 
Cc1oc2c(c1C)S(=O)(=O)C(C#N)=C(N(C)C)N2 |  |  |  | > 100 µM |  | > 100 µM |  | > 100 µM |  | > 100 µM |  | > 100 µM | > 100 µM |  |  | 
Cn1cc(-c2ccc3cc(-c4ccc(CC(=O)Nc5cc(C(C)(C)C)on5)cc4)cnc3c2)cn1 | 2.66 µM | 7.45 µM | 3.01 µM | > 100 µM | 0.84 µM | 2.55 µM |  |  |  |  | 1.65 µM | 6.74 µM | 4.87 µM | > 100 µM | 0.466 µM | 3.07 µM
O=C(NC(=O)c1cc(-c2ccccc2)n[nH]1)c1ccccc1 |  |  |  | > 100 µM |  | > 100 µM |  | > 100 µM |  | > 100 µM |  | > 100 µM | > 100 µM | 79.2 µM |  | 
Clc1ccc(-c2cn3c(nc4ccccc43)c(/C=C/c3ccco3)n2)cc1 |  | 41.7 µM |  |  |  | > 100 µM |  |  |  | > 100 µM |  |  | > 100 µM | 41.4 µM |  | 
COc1cc2c(c(O)c1OC)CC1CCC(=O)N1C2c1cccc2ccccc12 (stereo not given) |  | > 100 µM |  | > 100 µM |  | 61.1 µM |  | 41 µM |  |  |  | 41.1 µM | 82.9 µM | > 100 µM |  | 
